# Reference: US12624068B2, “Exon skipping by peptide nucleic acid derivatives” (OliPass Corporation, priority 2016, dated 2026)
# Oligonucleotides are written 5' to 3', each unit as a sugar letter and its base; * is a phosphorothioate linkage, no mark a phosphodiester; rarer units and linkages stand in square brackets, end groups in braces. Plain capitals give the bases only. {Fethoc} = N-terminal Fethoc cap; [C(1O2)] = modified PNA monomer acting as cytosine, C(pOq) type, 1O2; [C(1O5)] = modified PNA monomer acting as cytosine, C(pOq) type, 1O5; [A(5)] = modified PNA monomer acting as adenine, A(p) type, p=5; [A(6)] = modified PNA monomer acting as adenine, A(p) type, p=6; [G(5)] = modified PNA monomer acting as guanine, G(p) type, p=5; [G(6)] = modified PNA monomer acting as guanine, G(p) type, p=6; [PNA-N] = PNA monomer with natural nucleobase (N: the base); {NH2} = C-terminal amide; [G(G)] = code of the source, not defined here; [Lys] = lysine residue in the chain; [Val] = valine residue in the chain; {Piv} = N-terminal pivaloyl group; {Fmoc} = N-terminal Fmoc cap
# System: complementary 10-mer DNA
# Assay: Tm of 10-mer model PNA with complementary 10-mer DNA
# Type: binding
# Settings: 4 μM PNA and 4 μM complementary 10-mer DNA, aqueous buffer pH 7.16, uncorrected
# Procedure: The 10-mer PNA oligomers in Table 12 were evaluated for their binding affinity for the complementary 10-mer RNA or DNA by measuring Tm values as described below.
# (§1) A mixed solution of 4 μM 10-mer PNA oligomer and 4 μM complementary 10-mer DNA or RNA in 4 mL aqueous buffer (pH 7.16, 10 mM sodium phosphate, 100 mM NaCl) in 15 mL polypropylene falcon tube was incubated at 90° C. for a minute and slowly cooled down to ambient temperature. Then the solution was transferred into a 4 mL quartz UV cuvette, and subjected to Tm measurement at 260 nm on a UV/Visible spectrophotometer as described in the prior art [PCT/KR2009/001256] or with minor modifications. The DNA and RNA for Tm measurement were purchased from Bioneer (www.bioneer.com, Dajeon, Republic of Korea) and used without further purification.
row,Substance,Tm
1,"Fmoc-GTA-G(5)AT-CAC-T-NH2 (GTAGATCACT; all peptide nucleic acid (PNA), [G(5)] at 4, 5' {Fmoc}, 3' {NH2}; model 10-mer peptide nucleic acid written N to C) [PNA 10-5]",53 °C
2,"Fmoc-GTA-GAT-C(1O2)AC-T-NH2 (GTAGATCACT; all peptide nucleic acid (PNA), [C(1O2)] at 7, 5' {Fmoc}, 3' {NH2}; model 10-mer peptide nucleic acid written N to C) [PNA 10-6]",59 °C

# Same assay, conditions: complementary 10-mer DNA
row,Substance,ΔTm (Tm value - Tm value of PNA 10-1)
1,"Fmoc-GTA-G(5)AT-CAC-T-NH2 (GTAGATCACT; all peptide nucleic acid (PNA), [G(5)] at 4, 5' {Fmoc}, 3' {NH2}; model 10-mer peptide nucleic acid written N to C) [PNA 10-5]",+2 °C
2,"Fmoc-GTA-GAT-C(1O2)AC-T-NH2 (GTAGATCACT; all peptide nucleic acid (PNA), [C(1O2)] at 7, 5' {Fmoc}, 3' {NH2}; model 10-mer peptide nucleic acid written N to C) [PNA 10-6]",+8 °C

# System: 10-mer complementary DNA
# Assay: Tm between PNA derivatives and 10-mer complementary DNA (N- or C-terminal)
# Type: binding
# Settings: uncorrected
# Procedure: as §1
# PNA derivatives of Formula I were evaluated for their binding affinity for 10-mer DNAs complementarily targeting either the N-terminal or C-terminal. The binding affinity was assessed by the Tm value for the duplex between PNA and 10-mer complementary DNA. The duplex between PNA derivatives and DNAs of full complementarity usually show Tm values too high to be reliably determined in aqueous buffer solution. The aqueous buffer solution tends to boil off during Tm measurement.
Substance,"Tm Value, 10-mer DNA against C-Terminal","Tm Value, 10-mer DNA against N-Terminal"
"Fethoc-TG(6)T-TA(5)A-A(5)TA(5)-CGC(1O2)-AA(5)A-A(5)A-NH2 (TGTTAAATACGCAAAAA; all peptide nucleic acid (PNA), [G(6)] at 2, [A(5)] at 5, 7, 9, 14, 16, [C(1O2)] at 12, 5' {Fethoc}, 3' {NH2}; peptide nucleic acid written N to C) [SCN-ASO 4]",71.6 °C,63.5 °C
"Fethoc-CA(6)T-CA(6)T-TTG(5)-TTA(5)-CCC(1O2)-TG(5)-NH2 (CATCATTTGTTACCCTG; all peptide nucleic acid (PNA), [A(6)] at 2, 5, [G(5)] at 9, 17, [A(5)] at 12, [C(1O2)] at 15, 5' {Fethoc}, 3' {NH2}; peptide nucleic acid written N to C) [SNAP-ASO 10]",68.0 °C,61.0 °C
"Fethoc-AAG(6)-TG(6)T-A(5)CC(1O2)-TA(5)A-A-NH2 (AAGTGTACCTAAA; splice-switching; all peptide nucleic acid (PNA), [G(6)] at 3, 5, [A(5)] at 7, 11, [C(1O2)] at 9, 5' {Fethoc}, 3' {NH2}; peptide nucleic acid written N to C) [SCN-ASO 25]",66.0 °C,78.0 °C
"Fethoc-A(6)TT-TG(G)T-TA(5)C-C(1O2)CT-G(5)-NH2 (antisense ATTTGTTACCCTG; all peptide nucleic acid (PNA), [A(6)] at 1, [G(G)] at 5, [A(5)] at 8, [C(1O2)] at 10, [G(5)] at 13, 5' {Fethoc}, 3' {NH2}; peptide nucleic acid written N to C) [SNAP-ASO 9]",76.0 °C,62.0 °C
"Fethoc-G(5)AA(6)-CTT-A(6)TC-CTA(6)-C(1O2)T-NH2 (GAACTTATCCTACT; splice-switching; all peptide nucleic acid (PNA), [G(5)] at 1, [A(6)] at 3, 7, 12, [C(1O2)] at 13, 5' {Fethoc}, 3' {NH2}; peptide nucleic acid backbone) [HIF-ASO 5]",58.0 °C,62.0 °C
"Fethoc-CTT-A(5)CG(6)-C(1O2)AA(5)-AA(5)A-C(1O2)AA(5)-NH2 (CTTACGCAAAAACAA; all peptide nucleic acid (PNA), [A(5)] at 4, 9, 11, 15, [G(6)] at 6, [C(1O2)] at 7, 13, 5' {Fethoc}, 3' {NH2}; peptide nucleic acid written N to C) [SCN-ASO 12]",77.0 °C,76.0 °C
"Fethoc-A(6)TT-TG(5)T-TA(6)C-C(1O2)CT-G(5)G-NH2 (ATTTGTTACCCTGG; all peptide nucleic acid (PNA), [A(6)] at 1, 8, [G(5)] at 5, 13, [C(1O2)] at 10, 5' {Fethoc}, 3' {NH2}; peptide nucleic acid written N to C) [SNAP-ASO 12]",74.0 °C,62.0 °C
"Fethoc-TG(5)T-TA(6)C-C(1O2)CT-GG(5)G-A(5)-NH2 (TGTTACCCTGGGA; all peptide nucleic acid (PNA), [G(5)] at 2, 11, [A(6)] at 5, [C(1O2)] at 7, [A(5)] at 13, 5' {Fethoc}, 3' {NH2}; peptide nucleic acid written N to C) [SNAP-ASO 2]",87.6 °C,76.0 °C
"Piv-A(6)TC-CTA(6)-C(1O2)TT-A(5)AC-NH2 (ATCCTACTTAAC; splice-switching; all peptide nucleic acid (PNA), [A(6)] at 1, 6, [C(1O2)] at 7, [A(5)] at 10, 5' {Piv}, 3' {NH2}; peptide nucleic acid backbone) [HIF-ASO 9]",59.0 °C,60.9 °C
"Fethoc-CTC(1O2)-A(6)TC-CTA(6)-C(1O2)TT-AA(6)C-NH2 (CTCATCCTACTTAAC; all peptide nucleic acid (PNA), [C(1O2)] at 3, 10, [A(6)] at 4, 9, 14, 5' {Fethoc}, 3' {NH2}; peptide nucleic acid backbone) [HIF-ASO 8]",61.0 °C,73.0 °C
"Fethoc-AA(5)G-TG(5)T-A(5)CC(1O2)-TA(5)A-A(5)-NH2 (AAGTGTACCTAAA; splice-switching; all peptide nucleic acid (PNA), [A(5)] at 2, 7, 11, 13, [G(5)] at 5, [C(1O2)] at 9, 5' {Fethoc}, 3' {NH2}; peptide nucleic acid written N to C) [SCN-ASO 26]",72.0 °C,75.0 °C
"Fethoc-A(6)GA-A(6)CT-CA(6)T-CC(1O2)T-A(6)CT-TA(6)-NH2 (antisense AGAACTCATCCTACTTA; all peptide nucleic acid (PNA), [A(6)] at 1, 4, 8, 13, 17, [C(1O2)] at 11, 5' {Fethoc}, 3' {NH2}; peptide nucleic acid written N to C) [HIF-ASO 11]",61.0 °C,73.4 °C
"Fethoc-CA(6)T-TTG(5)-TTA(5)-CCC(1O2)-TG(5)-NH2 (antisense CATTTGTTACCCTG; all peptide nucleic acid (PNA), [A(6)] at 2, [G(5)] at 6, 14, [A(5)] at 9, [C(1O2)] at 12, 5' {Fethoc}, 3' {NH2}; peptide nucleic acid written N to C) [SNAP-ASO 8]",68.0 °C,58.0 °C
Piv-Lys-AA(6)C-TTA(6)-TCC(1O2)-TA(6)C-TTA(5)-Val-NH2 (antisense {Piv}[Lys][PNA-A][PNA-A(6)][PNA-C][PNA-T][PNA-T][PNA-A(6)][PNA-T][PNA-C][PNA-C(1O2)][PNA-T][PNA-A(6)][PNA-C][PNA-T][PNA-T][PNA-A(5)][Val]-{NH2}; peptide nucleic acid backbone) [HIF-ASO 10],60.0 °C,61.0 °C
"Fethoc-C(1O5)TT-A(6)TC-CTA(6)-C(1O2)TT-AA(6)C-NH2 (CTTATCCTACTTAAC; all peptide nucleic acid (PNA), [C(1O5)] at 1, [A(6)] at 4, 9, 14, [C(1O2)] at 10, 5' {Fethoc}, 3' {NH2}; peptide nucleic acid backbone) [HIF-ASO 7]",61.0 °C,69.0 °C
"Fethoc-TA(5)C-CAG(6)-GC(1O2)A-A(5)GG(6)-C-NH2 (antisense TACCAGGCAAGGC; all peptide nucleic acid (PNA), [A(5)] at 2, 10, [G(6)] at 6, 12, [C(1O2)] at 8, 5' {Fethoc}, 3' {NH2}; peptide nucleic acid backbone) [AR-ASO 4]",84.5 °C,84.3 °C
"Fethoc-GA(5)A-C(1O2)TT-A(5)TC-CTA(5)-CT-NH2 (GAACTTATCCTACT; splice-switching; all peptide nucleic acid (PNA), [A(5)] at 2, 7, 12, [C(1O2)] at 4, 5' {Fethoc}, 3' {NH2}; peptide nucleic acid backbone) [HIF-ASO 4]",53.4 °C,66.0 °C
"Fethoc-A(5)GT-G(5)TA(5)-CC(1O2)T-A(5)AA(5)-C-NH2 (AGTGTACCTAAAC; splice-switching; all peptide nucleic acid (PNA), [A(5)] at 1, 6, 10, 12, [G(5)] at 4, [C(1O2)] at 8, 5' {Fethoc}, 3' {NH2}; peptide nucleic acid written N to C) [SCN-ASO 28]",70.0 °C,78.1 °C
"Fethoc-A(5)AG-TG(6)T-A(5)CC(1O2)-TAA-A(5)-NH2 (AAGTGTACCTAAA; splice-switching; all peptide nucleic acid (PNA), [A(5)] at 1, 7, 13, [G(6)] at 5, [C(1O2)] at 9, 5' {Fethoc}, 3' {NH2}; peptide nucleic acid written N to C) [SCN-ASO 24]",66.0 °C,77.0 °C
"Fethoc-AA(5)G-TG(6)T-A(5)CC(1O2)-TAA(5)-A-NH2 (AAGTGTACCTAAA; splice-switching; all peptide nucleic acid (PNA), [A(5)] at 2, 7, 12, [G(6)] at 5, [C(1O2)] at 9, 5' {Fethoc}, 3' {NH2}; peptide nucleic acid written N to C) [SCN-ASO 22]",65.0 °C,74.0 °C
